In ChEMBL document CHEMBL1201862, “PubChem BioAssay data set” (2004):
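A five-concentration, 48-hour dose response in 96-well plates underlies each endpoint, interpolated linearly between surrounding concentrations. GI50: concentration for 50% inhibition of growth.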 Activity calls are given as the source filed them. No stated cut-off is given here; in the data, active = GI50 up to about 1.1 µM and inactive = higher.

How the values were obtained:
Test in all cases: NCI anticancer screen, dose series, 48 h
786-0 = system: 786-0
A498 = system: A498
A549 = system: A549
ACHN = system: ACHN
CAKI-1 = system: CAKI-1
CCRF-CEM = system: CCRF-CEM
COLO 205 = system: COLO 205
DLD-1 = system: DLD-1
DMS-114 = system: DMS-114
EKVX = system: EKVX
HCC 2998 = system: HCC 2998
HCT-116 = system: HCT-116
HL-60 = system: HL-60
HOP-18 = system: HOP-18
HOP-62 = system: HOP-62
HOP-92 = system: HOP-92
HT-29 = system: HT-29
IGROV-1 = system: IGROV-1
K562 = system: K562
KM-20L2 = system: KM-20L2
KM12 = system: KM12
LOX IMVI = system: LOX IMVI
LXFL 529 = system: LXFL 529
M14 = system: M14
M19-MEL = system: M19-MEL
MOLT-4 = system: MOLT-4
Malme-3M = system: Malme-3M
NCI-H226 = system: NCI-H226
NCI-H23 = system: NCI-H23
NCI-H460 = system: NCI-H460
NCI-H522 = system: NCI-H522
OVCAR-3 = system: OVCAR-3
OVCAR-4 = system: OVCAR-4
OVCAR-8 = system: OVCAR-8
RXF 393 = system: RXF 393
SF-268 = system: SF-268
SF-295 = system: SF-295
SF-539 = system: SF-539
SK-MEL-28 = system: SK-MEL-28
SK-MEL-5 = system: SK-MEL-5
SK-OV-3 = system: SK-OV-3
SN12C = system: SN12C
SNB-19 = system: SNB-19
SNB-75 = system: SNB-75
SNB-78 = system: SNB-78
SR = system: SR
SW-620 = system: SW-620
TK-10 = system: TK-10
U-251 = system: U-251
UACC-257 = system: UACC-257
UACC-62 = system: UACC-62
UO-31 = system: UO-31
XF498 = system: XF498
DMS-273 = system: DMS-273
HCT-15 = system: HCT-15
OVCAR-5 = system: OVCAR-5
RPMI-8226 = system: RPMI-8226
SK-MEL-2 = system: SK-MEL-2

Question: `O=C(/C=C/c1ccc(O)cc1)c1cc(Cl)ccc1O` was tested. Which GI50 (786-0) did it give?
Answer: The GI50 was 77.6 µM (inactive).

Question: And the GI50 (A498)?
Answer: The GI50 was > 100 µM (inactive).

Question: What about the GI50 (A549) of the same molecule?
Answer: Its GI50 is 39.9 µM (inactive).

Question: And the GI50 (ACHN)?
Answer: The GI50 was 70.8 µM (inactive).

Question: What about the GI50 (CAKI-1) of the same molecule?
Answer: Its GI50 is > 100 µM (inactive).

Question: What about the GI50 (CCRF-CEM) of the same molecule?
Answer: The GI50 was 6.32 µM (inactive).

Question: And the GI50 (COLO 205)?
Answer: Its GI50 is > 100 µM (inactive).

Question: And the GI50 (DLD-1)?
Answer: The GI50 was 43.6 µM (inactive).

Question: And the GI50 (DMS-114)?
Answer: The GI50 was 23.3 µM (inactive).

Question: And the GI50 (EKVX)?
Answer: Its GI50 is 86.3 µM (inactive).

Question: And the GI50 (HCC 2998)?
Answer: Its GI50 is 62.8 µM (inactive).

Question: What about the GI50 (HCT-116) of the same molecule?
Answer: The GI50 was 22.6 µM (inactive).

Question: What about the GI50 (HL-60) of the same molecule?
Answer: The GI50 was 17.8 µM (inactive).

Question: And the GI50 (HOP-18)?
Answer: Its GI50 is > 100 µM (inactive).

Question: And the GI50 (HOP-62)?
Answer: Its GI50 is > 100 µM (inactive).

Question: And the GI50 (HOP-92)?
Answer: Its GI50 is 85.3 µM (inactive).

Question: And the GI50 (HT-29)?
Answer: The GI50 was 34.5 µM (inactive).

Question: What about the GI50 (IGROV-1) of the same molecule?
Answer: Its GI50 is 57.4 µM (inactive).

Question: What about the GI50 (K562) of the same molecule?
Answer: Its GI50 is 24.1 µM (inactive).

Question: And the GI50 (KM-20L2)?
Answer: The GI50 was > 100 µM (inactive).

Question: What about the GI50 (KM12) of the same molecule?
Answer: Its GI50 is > 100 µM (inactive).

Question: What about the GI50 (LOX IMVI) of the same molecule?
Answer: Its GI50 is 18.7 µM (inactive).

Question: And the GI50 (LXFL 529)?
Answer: Its GI50 is 42.5 µM (inactive).

Question: And the GI50 (M14)?
Answer: Its GI50 is 55.3 µM (inactive).

Question: And the GI50 (M19-MEL)?
Answer: The GI50 was 72.1 µM (inactive).

Question: What about the GI50 (MOLT-4) of the same molecule?
Answer: The GI50 was 16.6 µM (inactive).

Question: What about the GI50 (Malme-3M) of the same molecule?
Answer: Its GI50 is 47.2 µM (inactive).

Question: What about the GI50 (NCI-H226) of the same molecule?
Answer: Its GI50 is 95.9 µM (inactive).

Question: And the GI50 (NCI-H23)?
Answer: Its GI50 is 40.5 µM (inactive).

Question: And the GI50 (NCI-H460)?
Answer: Its GI50 is 50.2 µM (inactive).

Question: And the GI50 (NCI-H522)?
Answer: Its GI50 is 17.2 µM (inactive).

Question: What about the GI50 (OVCAR-3) of the same molecule?
Answer: Its GI50 is 28.2 µM (inactive).

Question: And the GI50 (OVCAR-4)?
Answer: Its GI50 is 38.8 µM (inactive).

Question: And the GI50 (OVCAR-8)?
Answer: Its GI50 is 39.4 µM (inactive).

Question: What about the GI50 (RXF 393) of the same molecule?
Answer: Its GI50 is 28.9 µM (inactive).

Question: What about the GI50 (SF-268) of the same molecule?
Answer: The GI50 was 42.8 µM (inactive).

Question: And the GI50 (SF-295)?
Answer: Its GI50 is 35.2 µM (inactive).

Question: And the GI50 (SF-539)?
Answer: The GI50 was 18.8 µM (inactive).

Question: And the GI50 (SK-MEL-28)?
Answer: Its GI50 is 44.2 µM (inactive).

Question: And the GI50 (SK-MEL-5)?
Answer: Its GI50 is 37.2 µM (inactive).

Question: And the GI50 (SK-OV-3)?
Answer: The GI50 was > 100 µM (inactive).

Question: What about the GI50 (SN12C) of the same molecule?
Answer: The GI50 was 42.4 µM (inactive).

Question: And the GI50 (SNB-19)?
Answer: The GI50 was 44.9 µM (inactive).

Question: What about the GI50 (SNB-75) of the same molecule?
Answer: The GI50 was 46.5 µM (inactive).

Question: And the GI50 (SNB-78)?
Answer: The GI50 was 29.9 µM (inactive).

Question: And the GI50 (SR)?
Answer: The GI50 was 16.9 µM (inactive).

Question: What about the GI50 (SW-620) of the same molecule?
Answer: The GI50 was 35.4 µM (inactive).

Question: What about the GI50 (TK-10) of the same molecule?
Answer: Its GI50 is > 100 µM (inactive).

Question: What about the GI50 (U-251) of the same molecule?
Answer: The GI50 was 37.8 µM (inactive).

Question: What about the GI50 (UACC-257) of the same molecule?
Answer: The GI50 was 71.8 µM (inactive).

Question: And the GI50 (UACC-62)?
Answer: Its GI50 is 40.3 µM (inactive).

Question: And the GI50 (UO-31)?
Answer: The GI50 was 21.8 µM (inactive).

Question: What about the GI50 (XF498) of the same molecule?
Answer: The GI50 was 23.7 µM (inactive).

Question: For `COc1ccc(-c2cc3[nH]nc(N)c3c(=O)o2)cc1`, which GI50 (A498) is on record?
Answer: Its GI50 is 76.9 µM (inactive).

Question: And the GI50 (A549)?
Answer: The GI50 was > 100 µM (inactive).

Question: What about the GI50 (ACHN) of the same molecule?
Answer: The GI50 was > 100 µM (inactive).

Question: What about the GI50 (CAKI-1) of the same molecule?
Answer: Its GI50 is 73.6 µM (inactive).

Question: And the GI50 (CCRF-CEM)?
Answer: Its GI50 is > 100 µM (inactive).

Question: And the GI50 (COLO 205)?
Answer: The GI50 was > 100 µM (inactive).

Question: And the GI50 (DLD-1)?
Answer: The GI50 was > 100 µM (inactive).

Question: And the GI50 (DMS-114)?
Answer: Its GI50 is 72.4 µM (inactive).

Question: What about the GI50 (DMS-273) of the same molecule?
Answer: The GI50 was > 100 µM (inactive).

Question: And the GI50 (EKVX)?
Answer: Its GI50 is 14 µM (inactive).

Question: What about the GI50 (HCC 2998) of the same molecule?
Answer: The GI50 was > 100 µM (inactive).

Question: And the GI50 (HCT-116)?
Answer: Its GI50 is > 100 µM (inactive).

Question: And the GI50 (HCT-15)?
Answer: The GI50 was > 100 µM.

Question: What about the GI50 (HL-60) of the same molecule?
Answer: The GI50 was 90.4 µM (inactive).

Question: And the GI50 (HOP-18)?
Answer: The GI50 was > 100 µM (inactive).

Question: What about the GI50 (HOP-92) of the same molecule?
Answer: The GI50 was > 100 µM (inactive).

Question: What about the GI50 (HT-29) of the same molecule?
Answer: The GI50 was > 100 µM (inactive).

Question: And the GI50 (IGROV-1)?
Answer: The GI50 was > 100 µM (inactive).

Question: And the GI50 (K562)?
Answer: The GI50 was > 100 µM (inactive).

Question: And the GI50 (KM-20L2)?
Answer: The GI50 was > 100 µM (inactive).

Question: And the GI50 (KM12)?
Answer: The GI50 was > 100 µM (inactive).

Question: And the GI50 (LOX IMVI)?
Answer: The GI50 was > 100 µM (inactive).

Question: And the GI50 (LXFL 529)?
Answer: Its GI50 is > 100 µM (inactive).

Question: And the GI50 (M14)?
Answer: Its GI50 is > 100 µM (inactive).

Question: And the GI50 (MOLT-4)?
Answer: Its GI50 is > 100 µM (inactive).

Question: What about the GI50 (Malme-3M) of the same molecule?
Answer: The GI50 was > 100 µM (inactive).

Question: And the GI50 (NCI-H23)?
Answer: The GI50 was > 100 µM (inactive).

Question: What about the GI50 (NCI-H460) of the same molecule?
Answer: Its GI50 is > 100 µM (inactive).

Question: What about the GI50 (OVCAR-4) of the same molecule?
Answer: The GI50 was > 100 µM (inactive).

Question: And the GI50 (OVCAR-5)?
Answer: Its GI50 is > 100 µM (inactive).

Question: And the GI50 (OVCAR-8)?
Answer: Its GI50 is > 100 µM (inactive).

Question: And the GI50 (RPMI-8226)?
Answer: The GI50 was > 100 µM (inactive).

Question: What about the GI50 (RXF 393) of the same molecule?
Answer: The GI50 was 55.3 µM (inactive).

Question: And the GI50 (SF-268)?
Answer: Its GI50 is 81.3 µM (inactive).

Question: What about the GI50 (SF-295) of the same molecule?
Answer: The GI50 was > 100 µM (inactive).

Question: And the GI50 (SF-539)?
Answer: Its GI50 is > 100 µM (inactive).

Question: What about the GI50 (SK-MEL-28) of the same molecule?
Answer: The GI50 was > 100 µM (inactive).

Question: What about the GI50 (SK-MEL-2) of the same molecule?
Answer: The GI50 was > 100 µM (inactive).

Question: And the GI50 (SK-MEL-5)?
Answer: The GI50 was > 100 µM (inactive).

Question: What about the GI50 (SN12C) of the same molecule?
Answer: Its GI50 is > 100 µM (inactive).

Question: And the GI50 (SNB-19)?
Answer: The GI50 was > 100 µM (inactive).

Question: What about the GI50 (SNB-75) of the same molecule?
Answer: Its GI50 is 97.3 µM (inactive).

Question: And the GI50 (SNB-78)?
Answer: Its GI50 is > 100 µM (inactive).

Question: And the GI50 (SR)?
Answer: Its GI50 is > 100 µM (inactive).

Question: What about the GI50 (SW-620) of the same molecule?
Answer: The GI50 was > 100 µM (inactive).

Question: And the GI50 (TK-10)?
Answer: The GI50 was > 100 µM (inactive).

Question: And the GI50 (U-251)?
Answer: The GI50 was 89.9 µM (inactive).

Question: And the GI50 (UACC-257)?
Answer: Its GI50 is > 100 µM (inactive).

Question: What about the GI50 (UO-31) of the same molecule?
Answer: Its GI50 is > 100 µM (inactive).

Question: What about the GI50 (XF498) of the same molecule?
Answer: The GI50 was > 100 µM (inactive).
